Laboratory results taken from patent publication US7435587B2, “Apparatus for growing cells under variable hydrostatic pressures” (Memorial Sloan-Kettering Cancer Center, priority 2002, dated 2008).
“Also recorded” adds a separate entry of the source.

Experiments:
Format in all cases: cell-based, human
HOS cells [1] = assay: Chemosensitivity testing in a pressurized cassette-HPA system (in situ cell counts); details: for differences in growth between the pressurized and non-pressurized systems: 0 vs 20 mmHg, 72 h under pressure with drug, at 0.16 and 1 μ/ml; for difference in viability (cell counts under pressure) between 0 and 20 mmHg: testing under pressure, clinically relevant range of 0.04 to 4 μ/ml
Protocol: To investigate chemosensitivity in a pressurized system, 1.5×10^4 HOS cells were seeded in 16 cassettes. These were incubated for 24 hours and baseline counts were made at the end of 24 hours. Serial dilutions of doxorubicin were added at a dose of 0 μg/ml, 0.16 μg/ml, 1 μg/ml and 8 μg/ml. […] Two sets were provided for each drug at 0 and 20 mmHg. Pressurization proceeded for 72 hours as described above. At the end of this time point, in situ cell growth over the identical 5 high power fields recorded after the first 24 hours were made. The observer was blinded to the identity of the sample being read. Cell growth was expressed as a ratio between the 72 hour and baseline 24 hour counts. This was then normalized to the readings for cells that were not exposed to chemotherapy (i.e. 0 μg/ml). This was done to account for cell growth changes that could result from the pressure effect itself. Student's T-test was used to assess for significance between the results of chemosensitivity at 0 and 20 mmHg. […] Each data point represents the mean of five readings with error bars representing the standard error of the mean.

HOS cells [2] = assay: Conventional 96-well chemosensitivity testing of HOS cells grown under pressure, de-pressurized, trypsinized and reattached 24 h (Alamar blue); details: tested at atmospheric pressure, p<0.05; for difference in the ED50 between cells grown at atmospheric pressure and those grown under 20 mmHg of pressure: HOS cells grown 72 h at 0 vs 20 mmHg, de-pressurized, difference is small
Protocol: HOS cells were pressurized at 0 and 20 mmHg for 72 hours. At the end of this time point the growth membrane was removed and discs were created with a sterile punch. These discs bearing 2000 cells/disc were placed within each of the wells in a Costar 96-well plate (Bio-Rad, Hercules, Calif.). Serial dilutions of doxorubicin were immediately applied to the wells at a dose of 100 μg/ml to 0.00128 μg/ml. These were allowed an exposure time of 24 hours and then washed with PBS and 200 μl growth media replaced for a further 24 hours 25 μl of Alamar blue dye® (BioSource International, Camarillo, Calif.) was added for a further 8 hours and metabolic activity read with a Cytofluor® plate reader (Applied Biosystems, Foster City, Calif.). Metabolic activity was expressed as per manufacturer recommendations (BioSource International, Camarillo, Calif.). The experiment was repeated using cells grown at 72 hours under pressure, de-pressurized to atmospheric pressure and then trypsinized and seeded at 2000 cells per well and allowed 24 hours to gain attachment. They were then treated with doxorubicin. Assessment was completed as above. […] Student's t-test was used to assess for significance between the results of chemosensitivity at 0 and 20 mmHg. […] Each data point represents the mean of six readings with error bars representing the standard deviation.

HOS cells [3] = assay: Chemosensitivity testing of membrane discs bearing pressurized HOS cells immediately exposed to drug in 96-well plate (Alamar blue); details: HOS cells grown under pressure 72 h, cut from membranes, 24 h drug exposure at atmospheric pressure, no 24 h de-pressurization
Protocol: HOS cells were pressurized at 0 and 20 mmHg for 72 hours. At the end of this time point the growth membrane was removed and discs were created with a sterile punch. These discs bearing 2000 cells/disc were placed within each of the wells in a Costar 96-well plate (Bio-Rad, Hercules, Calif.). Serial dilutions of doxorubicin were immediately applied to the wells at a dose of 100 μg/ml to 0.00128 μg/ml. These were allowed an exposure time of 24 hours and then washed with PBS and 200 μl growth media replaced for a further 24 hours 25 μl of Alamar blue dye® (BioSource International, Camarillo, Calif.) was added for a further 8 hours and metabolic activity read with a Cytofluor® plate reader (Applied Biosystems, Foster City, Calif.). Metabolic activity was expressed as per manufacturer recommendations (BioSource International, Camarillo, Calif.).

Structure (SMILES) | differences in growth between the pressurized and non-pressurized systems (HOS cells [1]) | difference in viability (cell counts under pressure) between 0 and 20 mmHg (HOS cells [1]) | difference in the ED50 between cells grown at atmospheric pressure and those grown under 20 mmHg of pressure (HOS cells [2]) | difference in sensitivity between cells grown at 0 and 20 mmHg, membranes immediately exposed to drug (HOS cells [3]) | difference in cytotoxicity between cells grown at 0 and 20 mmHg (HOS cells [2]; depressurized HOS cells, drug concentration range 0.04 to 4 μg/ml)
N.N.[Cl][Pt][Cl] [cisplatin] | marked differences in growth | dramatic difference in viability | statistically significant difference | – | –
COc1cccc2c1C(=O)c1c(O)c3c(c(O)c1C2=O)C[C@@](O)(C(=O)CO)C[C@@H]3O[C@H]1C[C@H](N)[C@H](O)[C@H](C)O1 [doxorubicin] | marked differences in growth | dramatic difference in viability | statistically significant difference | this difference became more pronounced; also recorded: dramatic differences to sensitivity | statistically significant difference in cytotoxicity
